Key:
[1] = molecular target: TYK2 (Homo sapiens (Human), UniProt P29597); assay: JAK kinase assay (KINASE-GLO luminescent), TYK2 enzyme; assay type: biochemical; conditions: TYK2 enzyme 10 nM, Abl peptide substrate
Experimental: (§1) All compounds were initially prepared as 10 mM stocks in anhydrous dimethylsulfoxide (DMSO). […] Test compounds were then serially diluted 1:5 in DMSO for an 11-point concentration response and further diluted in the assay buffer bringing all compound concentrations to a final range of 100 μM to 10 μM in 2.5% DMSO. […] The reaction was initiated by the addition of 10 μL of 4× stock solution ATP (2 μM). Reactions were thoroughly mixed manually, covered, and allowed to incubate at room temperature for 75 min. Protein kinase activity was quantitated using Promega's KINASE-GLO™ luminescent Kinase Assay Kit according to the manufacturer's directions. ATP concentrations remaining in Test wells following the termination of the enzymatic reaction were compared against control wells containing equivalent amounts of DMSO containing no inhibitor (CTRL). […] Percent of Control (POC) values were determined for each concentration of compound tested according to the equation: […]
(§2) IC50 values were calculated using the following 4-parameter logistic curve-fitting algorithm:
(§3) Compounds were prepared in the exact same manner as described in the ROCK Kinase Assay with the exception to the substrate and enzyme. […] All other steps and solutions remain identical to the ROCK Kinase Assay above.

[2] = molecular target: JAK1 (Homo sapiens (Human), UniProt P23458); assay: JAK kinase assay (KINASE-GLO luminescent), JAK1 enzyme; assay type: biochemical; conditions: JAK1 enzyme 10 nM, Abl peptide substrate
Experimental: as §1, §2, §3

Sequence of JAK1 (P23458 whole entry, species assumed): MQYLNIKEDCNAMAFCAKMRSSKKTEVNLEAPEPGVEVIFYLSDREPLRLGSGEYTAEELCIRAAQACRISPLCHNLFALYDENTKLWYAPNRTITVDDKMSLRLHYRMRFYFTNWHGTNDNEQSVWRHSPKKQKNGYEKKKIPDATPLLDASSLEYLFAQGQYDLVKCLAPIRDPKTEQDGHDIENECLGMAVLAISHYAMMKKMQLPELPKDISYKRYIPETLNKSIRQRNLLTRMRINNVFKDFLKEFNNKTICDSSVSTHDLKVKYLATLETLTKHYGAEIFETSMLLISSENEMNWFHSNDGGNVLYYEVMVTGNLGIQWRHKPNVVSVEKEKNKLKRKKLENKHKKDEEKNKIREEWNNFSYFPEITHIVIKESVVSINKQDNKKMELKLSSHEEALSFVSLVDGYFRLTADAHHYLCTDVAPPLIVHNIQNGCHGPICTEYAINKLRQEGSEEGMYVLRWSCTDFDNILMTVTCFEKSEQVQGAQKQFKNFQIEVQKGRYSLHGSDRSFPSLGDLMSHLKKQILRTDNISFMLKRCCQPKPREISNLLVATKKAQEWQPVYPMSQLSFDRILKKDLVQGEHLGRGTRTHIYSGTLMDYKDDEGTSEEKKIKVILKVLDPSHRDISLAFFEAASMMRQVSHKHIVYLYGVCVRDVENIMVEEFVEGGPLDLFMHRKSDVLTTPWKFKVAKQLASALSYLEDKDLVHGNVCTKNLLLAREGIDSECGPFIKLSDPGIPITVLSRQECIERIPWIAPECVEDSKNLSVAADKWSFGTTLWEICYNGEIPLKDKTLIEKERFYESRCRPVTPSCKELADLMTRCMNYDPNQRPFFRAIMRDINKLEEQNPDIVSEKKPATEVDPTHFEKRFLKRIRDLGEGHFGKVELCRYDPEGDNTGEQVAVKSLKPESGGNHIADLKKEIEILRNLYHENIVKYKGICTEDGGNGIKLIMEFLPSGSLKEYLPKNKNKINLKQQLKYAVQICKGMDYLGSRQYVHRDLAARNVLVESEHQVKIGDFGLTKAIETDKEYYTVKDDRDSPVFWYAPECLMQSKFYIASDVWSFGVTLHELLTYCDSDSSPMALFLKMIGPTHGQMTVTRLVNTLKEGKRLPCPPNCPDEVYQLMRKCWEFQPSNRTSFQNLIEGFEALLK
Sequence of TYK2 (P29597 whole entry, species assumed): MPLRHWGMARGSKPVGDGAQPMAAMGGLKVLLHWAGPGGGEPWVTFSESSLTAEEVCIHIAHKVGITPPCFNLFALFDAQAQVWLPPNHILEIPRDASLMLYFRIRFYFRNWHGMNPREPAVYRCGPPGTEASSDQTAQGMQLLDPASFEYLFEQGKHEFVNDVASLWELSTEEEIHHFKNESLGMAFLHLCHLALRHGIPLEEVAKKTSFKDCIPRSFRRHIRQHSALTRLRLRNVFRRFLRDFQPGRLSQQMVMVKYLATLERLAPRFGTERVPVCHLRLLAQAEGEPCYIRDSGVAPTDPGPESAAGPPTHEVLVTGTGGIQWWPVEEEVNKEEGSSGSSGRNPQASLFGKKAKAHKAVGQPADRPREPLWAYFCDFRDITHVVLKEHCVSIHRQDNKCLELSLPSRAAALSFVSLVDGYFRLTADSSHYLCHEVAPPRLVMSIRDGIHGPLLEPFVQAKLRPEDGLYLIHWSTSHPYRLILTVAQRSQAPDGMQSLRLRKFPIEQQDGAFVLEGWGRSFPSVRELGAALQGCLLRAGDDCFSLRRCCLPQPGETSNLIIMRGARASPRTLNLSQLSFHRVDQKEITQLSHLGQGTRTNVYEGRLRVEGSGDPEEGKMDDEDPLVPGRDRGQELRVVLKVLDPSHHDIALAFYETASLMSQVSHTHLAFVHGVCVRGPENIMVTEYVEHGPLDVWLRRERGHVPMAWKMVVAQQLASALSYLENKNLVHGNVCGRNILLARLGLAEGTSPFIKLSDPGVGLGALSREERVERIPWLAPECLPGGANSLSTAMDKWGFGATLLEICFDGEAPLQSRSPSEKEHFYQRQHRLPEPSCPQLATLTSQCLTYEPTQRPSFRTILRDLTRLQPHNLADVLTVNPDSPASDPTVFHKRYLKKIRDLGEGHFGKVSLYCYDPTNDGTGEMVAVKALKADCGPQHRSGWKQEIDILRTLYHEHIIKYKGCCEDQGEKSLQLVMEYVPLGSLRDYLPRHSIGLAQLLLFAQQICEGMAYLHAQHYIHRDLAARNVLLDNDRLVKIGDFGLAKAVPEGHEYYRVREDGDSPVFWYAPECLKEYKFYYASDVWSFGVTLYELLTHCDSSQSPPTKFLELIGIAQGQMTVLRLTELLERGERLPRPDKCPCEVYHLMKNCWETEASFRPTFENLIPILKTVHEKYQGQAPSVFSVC

IC50 [1]	IC50 [2]	Compound
< 10 nM	< 50 nM	Cc1cc(Nc2ncc(C)c(N3CC(CC#N)(N4CCN5C[C@H](C)C[C@H]5C4)C3)n2)sn1 [E117a]
< 10 nM	< 10 nM	Cc1cnc(Nc2cnn(C)c2)nc1N1CC(CC#N)(N2CCN3C[C@H](F)C[C@H]3C2)C1 [E152a, 2-(3-((7R,8aS)-7-fluorohexahydropyrrolo[1,2-a]pyrazin-2(1H)-yl)-1-(5-methyl-2-((1-methyl-1H-pyrazol-4-yl)amino)pyrimidin-4-yl)azetidin-3-yl)acetonitrile]
< 20 nM	< 50 nM	Cc1cnc(Nc2cccnc2)nc1N1CC(CC#N)(N2CCN(C)CC2)C1 [E117]
< 50 nM	< 50 nM	Cc1cnc(Nc2cnn(C)c2)nc1N1CC(CCO)(N2CCN3C[C@H](F)C[C@H]3C2)C1 [E167a]
< 20 nM	< 20 nM	Cc1cnc(Nc2ccc3c(c2)CN(C)C3)nc1N1CC(CC#N)(N2CCC3(CC2)CC3)C1 [E114]
< 10 nM	< 25 nM	Cc1cnc(Nc2ccc(N3CCOCC3)c(F)c2)nc1N1CC(CC#N)(N2CCCCC2)C1 [E119]
< 10 nM	< 25 nM	Cc1cc(Nc2ncc(C)c(N3CC(CC(F)F)C3)n2)sn1 [E117-U]
< 10 nM	< 10 nM	Cc1cc(Nc2ncc(C)c(N3CC(CC#N)(NC(=O)[C@@H]4CC4(F)F)C3)n2)sn1 [E290, (S)—N-(3-(cyanomethyl)-1-(5-methyl-2-((3-methylisothiazol-5-yl)amino)pyrimidin-4-yl)azetidin-3-yl)-2,2-difluorocyclopropane-1-carboxamide]
< 200 nM	< 200 nM	COCCN1CCN(C2(CC#N)CN(c3nc(Nc4cnn(CCOC)c4)ncc3C)C2)CC1 [E175-E]
< 1000 nM	< 5000 nM	Cc1cc(N(c2ncc(C)c(N3CC(CC#N)(NS(C)(=O)=O)C3)n2)S(C)(=O)=O)sn1 [E292]
< 20 nM	< 20 nM	Cc1cc(Nc2ncc(C)c(N3CC(CC#N)(NC(=O)c4ccccn4)C3)n2)sn1 [E296]
< 10 nM	< 50 nM	Cc1cnc(Nc2ccc(N3CCOCC3)cc2)nc1N1CC(CC#N)(N2CCN(C)CC2)C1 [E118]
> 2000 nM	> 1500 nM	Cc1cnc(Nc2cnn(C)c2)nc1N1CC(CC#N)(N[C@H]2CC[C@H](NC(=O)OC(C)(C)C)C2)C1 [E305]
< 75 nM	< 75 nM	Cc1cc(Nc2ncc(C)c(N3CC(=CC#N)C3)n2)sn1 [E117-X]
< 20 nM	< 20 nM	Cc1cnc(Nc2cnn(C)c2)nc1N1CC(CCC#N)(N2CCN3C[C@H](F)C[C@H]3C2)C1 [E168a]
< 100 nM	< 150 nM	Cc1cc(Nc2ncc(C)c(N3CC(N)(CC#N)C3)n2)sn1 [E289, 2-(3-amino-1-(5-methyl-2-((3-methylisothiazol-5-yl)amino)pyrimidin-4-yl)azetidin-3-yl)acetonitrile]
< 10 nM	< 20 nM	Cc1cc(Nc2ncc(C)c(N3CC(CC#N)(NCc4ccc(F)cc4F)C3)n2)sn1 [E295, 2-(3-((2,4-difluorobenzyl)amino)-1-(5-methyl-2-((3-methylisothiazol-5-yl)amino)pyrimidin-4-yl)azetidin-3-yl)acetonitrile]
< 10 nM	< 50 nM	Cc1cc(Nc2ncc(C)c(N3CC(CCF)(N4CCN5C[C@H](F)C[C@H]5C4)C3)n2)sn1 [E117-A]
< 10 nM	< 10 nM	CCC1(NC(=O)c2cccc(F)c2)CN(c2nc(Nc3cc(C)ns3)ncc2C)C1 [E318B]
< 5 nM	< 10 nM	C#CC1(O)CN(c2nc(Nc3cc(C)ns3)ncc2C)C1 [E117-N]
< 30 nM	< 120 nM	Cc1cnc(Nc2ccc3c(c2)B(O)OC3)nc1N1CC(CC#N)(N2CCN3C[C@H](F)C[C@H]3C2)C1 [E216-O]
< 20 nM	< 20 nM	Cc1cc(Nc2ncc(C)c(N3CC(CC#N)(NC(=O)Cc4ccccc4F)C3)n2)sn1 [E300]
< 50 nM	< 100 nM	Cc1cc(Nc2ncc(C)c(N3CC(CC#N)(NC(=O)Cc4cccnc4)C3)n2)sn1 [E281]
< 10 nM	< 10 nM	Cc1cc(Nc2ncc(C)c(N3CC(CC#N)(NC(=O)c4cccc(F)c4)C3)n2)sn1 [E304]
< 50 nM	< 20 nM	Cc1cc(Nc2ncc(C)c(N3CC(CC#N)(NC(=O)c4ccc(F)c(F)c4)C3)n2)sn1 [E313]
< 1000 nM	< 1000 nM	Cc1cc(Nc2ncc(C)c(N3C4CC3CN(CCC#N)C4)n2)sn1 [E117-AD]
< 100 nM	< 100 nM	Cc1cc(Nc2ncc(C)c(N3CC(C)(CNC(=O)C4CN(C(=O)OC(C)(C)C)CC4(F)F)C3)n2)sn1 (stereo not shown) [E283]
< 5 nM	< 5 nM	Cc1cc(Nc2ncc(C)c(N3CC(CC#N)(N4CCC(F)(F)CC4)C3)n2)sn1 [E117-E]
< 20 nM	< 20 nM	Cc1cc(Nc2ncc(C)c(N3CC(CC#N)(NC(=O)NCC(F)(F)F)C3)n2)sn1 [E293, 1-(3-(cyanomethyl)-1-(5-methyl-2-((3-methylisothiazol-5-yl)amino)pyrimidin-4-yl)azetidin-3-yl)-3-(2,2,2-trifluoroethyl)urea]
< 60 nM	< 120 nM	Cc1cnc(Nc2cnn(C)c2)nc1N1CC(CC#N)(N[C@H]2CC[C@H](NS(C)(=O)=O)C2)C1 [E306]

The remaining lines, values behind:

Compound	IC50 [1]	IC50 [2]
Cc1cc(Nc2ncc(C)c(N3CC(CC#N)(N4CCN(CC(C)C)CC4)C3)n2)sn1 [E51]	< 20 nM	< 15 nM
Cc1cc(Nc2ncc(C)c(N3CC(CC#N)(N4CCC(C5CC5(F)F)CC4)C3)n2)sn1 (stereo not shown) [E40]	< 10 nM	< 10 nM
Cc1cc(Nc2ncc(C)c(N3CC(CC#N)(N4CCN(C)[C@@H](C)C4)C3)n2)sn1 [E52A]	< 10 nM	< 20 nM
Cc1cnc(Nc2cnn(C)c2)nc1N1CC(CC#N)(N2CCC3(CC2)CC3(F)F)C1 [E81]	< 10 nM	< 10 nM
Cc1cc(Nc2ncc(C)c(N3CC(CC#N)(N4CC5OCCN(C)C5C4)C3)n2)sn1 (stereo not shown) [E98a]	< 10 nM	< 50 nM
Cc1cc(Nc2ncc(C)c(N3CC(CC#N)(N4CCCC5(CC5)C4)C3)n2)sn1 [E21]	< 10 nM	< 10 nM
Cc1cc(Nc2ncc(C)c(N3CC(CC#N)(N4CCN5CCOC[C@@H]5C4)C3)n2)sn1 [E77a]	< 10 nM	< 50 nM
Cc1cc(Nc2ncc(C)c(N3CC(CC#N)(N4CCC(CCF)CC4)C3)n2)sn1 [E14]	< 10 nM	< 10 nM
Cc1cc(Nc2nccc(N3CC(CC#N)(N4CCCCC4)C3)n2)sn1 [E45]	< 20 nM	< 200 nM
Cc1cc(Nc2ncc(C)c(N3CC(CC#N)(N(C)C4CN(C)C4)C3)n2)sn1 [E37]	< 50 nM	< 50 nM
Cc1cc(Nc2ncc(C)c(N3CC(CC#N)(N4CCCN(C)CC4)C3)n2)sn1 [E52G]	< 50 nM	< 100 nM
Cc1cc(Nc2ncc(C)c(N3CC(CC#N)(N4CC5(CC5)C4)C3)n2)sn1 [E95a]	< 10 nM	< 50 nM
COc1cnc(Nc2cc(C)ns2)nc1N1CC(CC#N)(N2CCCCC2)C1 [E24]	< 50 nM	< 50 nM
Cc1cc(Nc2ncc(C)c(N3CC(CC#N)(N4CC(C5CC5)C4)C3)n2)sn1 [E11]	< 10 nM	< 10 nM
Cc1cc(Nc2ncc(C)c(N3CC(CC#N)(N4CCN5CC(F)(F)C[C@H]5C4)C3)n2)sn1 [E81a]	< 20 nM	< 20 nM
Cc1cc(Nc2ncc(C)c(N3CC(CC#N)(N4CCN5CCC5C4)C3)n2)sn1 (stereo not shown) [E89a]	< 50 nM	< 100 nM
Cc1cc(Nc2ncc(C)c(N3CC(CC#N)(NC4CN(C)C4)C3)n2)sn1 [E52H]	< 100 nM	< 100 nM
Cc1cc(Nc2ncc(C)c(N3CC(CC#N)(N4CCn5cccc5C4)C3)n2)sn1 [E90a]	< 10 nM	< 10 nM
Cc1cc(Nc2ncc(F)c(N3CC(CC#N)(N4CCCCC4)C3)n2)sn1 [E74a]	< 20 nM	< 500 nM
Cc1cc(Nc2ncc(C)c(N3CC(CC#N)(N4CCN5CC(C)(C)C[C@H]5C4)C3)n2)sn1 [E111a]	< 10 nM	< 10 nM
Cc1cc(Nc2ncc(C)c(N3CC(CC#N)(N4CCC(CC(F)F)CC4)C3)n2)sn1 [E20]	< 10 nM	< 10 nM
Cc1cc(Nc2ncc(C)c(N3CC(CC#N)(N4CCCCCC4)C3)n2)sn1 [E33]	< 10 nM	< 10 nM
Cc1cc(Nc2ncc(C)c(N3CC(CC#N)(N4CCN5CC6CC5(C6)C4)C3)n2)sn1 [E86a]	< 20 nM	< 100 nM
Cc1cc(Nc2ncc(C3CC3)c(N3CC(CC#N)(N4CCCCC4)C3)n2)sn1 [E32]	< 10 nM	< 50 nM
Cc1cc(Nc2ncc(C)c(N3CC(CC#N)(N4CC5C(C4)C5(F)F)C3)n2)sn1 (stereo not shown) [E29]	< 10 nM	< 10 nM
Cc1cc(Nc2ncc(C)c(N3CC(CC#N)(N4CCC4)C3)n2)sn1 [E12]	< 10 nM	< 10 nM
Cc1cnc(Nc2cnn(C)c2)nc1N1CC2(C1)CC2(F)F [E82]	< 20 nM	< 20 nM
Cc1cc(Nc2ncc(C)c(N3CC(CC#N)(N4CCN5CCC[C@@H]5C4)C3)n2)sn1 [E61a]	< 50 nM	< 50 nM
Cc1cc(Nc2ncc(C)c(N3CC(CC#N)(N4CCN(C)C(C)C4)C3)n2)sn1 (stereo not shown) [E36]	< 10 nM	< 10 nM

Source: patent US20240425496A1, “AZETIDINYL PYRIMIDINES AND USES THEREOF” (Aerie Pharmaceuticals, Inc., priority 2021, published 2024)
